# Source: US20260355188A1, “COMBINATION THERAPIES USING PRMT5 INHIBITORS AND BCL-2 FAMILY INHIBITORS FOR THE TREATMENT OF CANCER” (MIRATI THERAPEUTICS, INC., priority 2022, published 2026)
# Tests used:
# [1] = oral; cited from earlier work
# LU99 xenograft tumors = test: In vivo combination study (LU99 model), Example 1; design: species or system female nu/nu mice; details: MRTX1719, ABT-263, ABT-199 each 100 mg/kg PO QD, alone or combined
# From the text: Immunodeficient female nu/nu mice were implanted with 5×10^6 LU99 cancer cells in 50% Matrigel. Tumor volume measurements were collected using calipers and determined utilizing the formula 0.5×L×W^2 in which L refers to length and W refers to width of each tumor. When tumors reached approximately 125-150 mm^3, animals were randomized to receive A) vehicle, B) a PRMT5 inhibitor, C) navitoclax (ABT-263), D) venetoclax (ABT-199), E) A-1331852, F) the PRMT5 inhibitor and navitoclax, F) the PRMT5 inhibitor and venetoclax, or G) the PRMT5 inhibitor and A-1331852 all administered orally (PO) with the indicated dose and schedule for 20-34 days. Tumor volume was measured twice a week (n=5/treatment group). Average tumor volume and standard error of the mean was calculated and plotted at each study day using GraphPad Prism.
# The PRMT5 inhibitor was MRTX1719 administered at 100 mg/kg once a day (QD). MRTX1719 is (2M)-2-(4-(4-(aminomethyl)-1-oxo-1,2-dihydrophthalazin-6-yl)-1-methyl-1H-pyrazol-5-yl)-4-chloro-6-cyclopropoxy-3-fluorobenzonitrile, disclosed as Example 16-8 at p. 307 of the international patent publication No. WO 2021/050915 A1, published 18 Mar. 2021, incorporated by reference in its entirety.
# The BCL-2 family inhibitors used in this example, ABT-199 (venetoclax) and ABT-263 (navitoclax), were administered at 100 mg/kg once a day (QD) and supplied by Selleck Chemicals (Houston, TX).
Compound,bioavailable when administered orally [1],Average Tumor Volume (LU99 xenograft tumors; day 3) [mm^3],Average Tumor Volume (LU99 xenograft tumors; day 6) [mm^3],Average Tumor Volume (LU99 xenograft tumors; day 10) [mm^3],Average Tumor Volume (LU99 xenograft tumors; day 13) [mm^3],Average Tumor Volume (LU99 xenograft tumors; day 17) [mm^3],Average Tumor Volume (LU99 xenograft tumors; day 20) [mm^3],Average Tumor Volume (LU99 xenograft tumors; day −1) [mm^3]
Cc1c(-c2ccc(N3CCc4cccc(C(=O)Nc5nc6ccccc6s5)c4C3)nc2C(=O)O)cnn1CC12CC3CC(CC(C3)C1)C2 [A-1331852],known to be bioavailable when administered orally,,,,,,,
"Cn1ncc(-c2ccc3c(=O)[nH]nc(CN)c3c2)c1-c1c(F)c(Cl)cc(OC2CC2)c1C#N (atropisomer, axis not shown; (M)) [MRTX1719, (2M)-2-(4-(4-(aminomethyl)-1-oxo-1,2-dihydrophthalazin-6-yl)-1-methyl-1H-pyrazol-5-yl)-4-chloro-6-cyclopropoxy-3-fluorobenzonitrile]",,215,236,236,260,282,302,153
"CC1(C)CCC(c2ccc(Cl)cc2)=C(CN2CCN(c3ccc(C(=O)NS(=O)(=O)c4ccc(N[C@H](CCN5CCOCC5)CSc5ccccc5)c(S(=O)(=O)C(F)(F)F)c4)cc3)CC2)C1 [ABT-263, navitoclax]",,236,359,558,737,1042,1237,153
